Laboratory results as given in ChEMBL document CHEMBL1201862, “PubChem BioAssay data set” (2004).
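Dose response: 5 concentrations. Exposure: 48 h. Format: 96-well plates. Endpoint: linear interpolation; highest concentration if not reached. Abbreviation: GI50, concentration required for 50% inhibition of growth.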 Calls of active or inactive are those of the source. Rule as the data show it: active = GI50 up to about 1.1 µM and inactive = higher.

Experiments:
Assay in all cases: DTP human tumour cell line panel, 48 h
IGROV-1 = test system: IGROV-1
MDA-N = test system: MDA-N
SF-539 = test system: SF-539
ACHN = test system: ACHN
U-251 = test system: U-251
CAKI-1 = test system: CAKI-1
PC-3 = test system: PC-3
HOP-62 = test system: HOP-62
TK-10 = test system: TK-10
NCI-H522 = test system: NCI-H522
K562 = test system: K562
SNB-75 = test system: SNB-75
MDA-MB-435 = test system: MDA-MB-435
KM12 = test system: KM12
786-0 = test system: 786-0
OVCAR-3 = test system: OVCAR-3
OVCAR-8 = test system: OVCAR-8
HCC 2998 = test system: HCC 2998
A498 = test system: A498
SF-268 = test system: SF-268

Measured: GI50

Cc1ccc(C(=O)N/N=C(\N=N\c2cccc(Cl)c2)c2ccc(N(CCC#N)CCC#N)cc2C)cc1
inactive: IGROV-1 > 100 µM | MDA-N > 100 µM | SF-539 > 100 µM | ACHN > 100 µM | U-251 > 100 µM | CAKI-1 > 100 µM | PC-3 > 100 µM | HOP-62 > 100 µM | TK-10 > 100 µM | NCI-H522 > 100 µM | K562 > 100 µM | SNB-75 75.9 µM | MDA-MB-435 > 100 µM | KM12 > 100 µM | 786-0 82 µM | OVCAR-3 93.3 µM | OVCAR-8 79.4 µM | HCC 2998 > 100 µM | A498 > 100 µM

COC(=O)C1CN=CN1CCc1ccccc1 (centres undefined)
inactive: IGROV-1 > 100 µM | MDA-N > 100 µM | SF-539 > 100 µM | ACHN > 100 µM | U-251 > 100 µM | CAKI-1 > 100 µM | PC-3 > 100 µM | TK-10 > 100 µM | NCI-H522 > 100 µM | K562 > 100 µM | SNB-75 15.5 µM | MDA-MB-435 > 100 µM | KM12 > 100 µM | 786-0 > 100 µM | OVCAR-3 > 100 µM | OVCAR-8 > 100 µM | HCC 2998 > 100 µM | A498 > 100 µM

CC(Cc1cccc2c1Nc1ccccc1S2)N(C)CCO (centres undefined)
inactive: IGROV-1 > 100 µM | MDA-N > 100 µM | SF-539 > 100 µM | ACHN > 100 µM | U-251 > 100 µM | CAKI-1 > 100 µM | PC-3 > 100 µM | SF-268 > 100 µM | HOP-62 > 100 µM | TK-10 > 100 µM | NCI-H522 > 100 µM | K562 > 100 µM | MDA-MB-435 > 100 µM | KM12 > 100 µM | 786-0 > 100 µM | OVCAR-3 > 100 µM | OVCAR-8 > 100 µM | HCC 2998 > 100 µM | A498 26.4 µM

OCC1OC(O)C(/N=C\c2ccc3c(c2)OCO3)C(O)C1O (centres undefined)
inactive: IGROV-1 > 100 µM | MDA-N > 100 µM | SF-539 > 100 µM | ACHN > 100 µM | U-251 > 100 µM | CAKI-1 > 100 µM | PC-3 > 100 µM | SF-268 > 100 µM | HOP-62 > 100 µM | TK-10 > 100 µM | NCI-H522 > 100 µM | SNB-75 > 100 µM | MDA-MB-435 > 100 µM | KM12 > 100 µM | 786-0 > 100 µM | OVCAR-3 > 100 µM | OVCAR-8 > 100 µM | HCC 2998 > 100 µM | A498 > 100 µM

C[C@@H]1CCC2C(C)(C)C(/C=C\C=O)C3(C)OC213 (some centres undefined)
inactive: IGROV-1 24.6 µM | MDA-N 26 µM | ACHN 71.4 µM | U-251 28.6 µM | CAKI-1 > 100 µM | PC-3 41.2 µM | SF-268 27.3 µM | HOP-62 38.9 µM | TK-10 72.6 µM | NCI-H522 46 µM | K562 33.6 µM | SNB-75 29.1 µM | MDA-MB-435 27.5 µM | KM12 36.1 µM | 786-0 28.8 µM | OVCAR-3 33.4 µM | OVCAR-8 20.2 µM | HCC 2998 48.5 µM | A498 > 100 µM

CN(C)c1ccc(/C=c2/c3ccccc3n3nc4ccccc4c23)cc1
inactive: IGROV-1 22.1 µM | MDA-N 3.13 µM | SF-539 24.4 µM | ACHN 38.6 µM | U-251 22.6 µM | CAKI-1 28.7 µM | PC-3 8.04 µM | SF-268 36.3 µM | HOP-62 49.4 µM | TK-10 > 100 µM | NCI-H522 5.71 µM | K562 9.53 µM | SNB-75 2.49 µM | MDA-MB-435 3.35 µM | KM12 30.7 µM | 786-0 27 µM | OVCAR-3 28.2 µM | OVCAR-8 39.8 µM | A498 4.3 µM

COC(=O)CC(c1ccccc1)C(C#N)(OP1(=O)OC(c2ccccc2)C(C)N1C)c1ccccc1 (centres undefined)
inactive: IGROV-1 71.9 µM | MDA-N 54.5 µM | ACHN 39.4 µM | U-251 54.1 µM | CAKI-1 72.1 µM | PC-3 35.8 µM | SF-268 > 100 µM | HOP-62 > 100 µM | TK-10 > 100 µM | NCI-H522 35 µM | K562 26.2 µM | SNB-75 > 100 µM | MDA-MB-435 43.4 µM | KM12 35 µM | 786-0 83.4 µM | OVCAR-3 77.1 µM | OVCAR-8 48 µM | HCC 2998 > 100 µM | A498 39.4 µM

C=CC(=O)Nc1ccc(NC(=O)C=C)c2c1C(=O)c1ccccc1C2=O
inactive: IGROV-1 > 100 µM | MDA-N 36.1 µM | SF-539 24.8 µM | ACHN 61.7 µM | U-251 20.9 µM | PC-3 40.8 µM | HOP-62 > 100 µM | TK-10 23.2 µM | NCI-H522 16.6 µM | K562 15.7 µM | MDA-MB-435 > 10 µM | KM12 12 µM | 786-0 21.5 µM | OVCAR-3 35.6 µM | OVCAR-8 27.7 µM | HCC 2998 > 100 µM | A498 > 100 µM
